Series [1] in a line: Lipophilicity, log D of the compound. The format is physicochemical. To be noted: octanol/water.
In series [2] the test system is Mus musculus. As to the kind of experiment: Induction of CYP24 mRNA transcriptional activity in C57BL/6 mouse duodenum at 3 ug/kg, ip after 4 hrs. Format: functional, organism-based.
Series [3] concerns Mus musculus. As to the kind of experiment: Induction of TRPV6 mRNA transcriptional activity in C57BL/6 mouse duodenum at 3 ug/kg, ip after 4 hrs. The format is functional, organism-based.
For series [4], the system named is Mus musculus. As to the kind of experiment: Induction of CYP24 mRNA transcriptional activity in C57BL/6 mouse duodenum at 25 ug/kg, ip after 4 hrs. The format is functional, organism-based.
The subject of series [5] is Mus musculus. As to the kind of experiment: Induction of TRPV6 mRNA transcriptional activity in C57BL/6 mouse duodenum at 25 ug/kg, ip after 4 hrs. Format: functional, organism-based.

These results are taken from ChEMBL document CHEMBL1137609, “Low-calcemic, highly antiproliferative, 23-oxa ether analogs of the natural hormone 1 alpha,25-dihydroxyvitamin D3: design, synthesis, and preliminary biological evaluation” (J Med Chem, 2007).

Active and inactive are the calls of the source. No cut-off for these calls is given here.

A word on the logD: it is the decadic logarithm of the distribution of all forms, ionised or not, between an organic phase and buffer at a given pH. In the case of `C=C1/C(=C\C=C2/CCC[C@]3(C)[C@@H]([C@H](C)COCC(=C)C4(C)CCCCC4)CC[C@@H]23)C[C@@H](O)C[C@@H]1O`, the logD in series [1] turned out to be 5.3.

`C=C1/C(=C\C=C2/CCC[C@]3(C)[C@@H]([C@H](C)COCc4ccccc4)CC[C@@H]23)C[C@@H](O)C[C@@H]1O` registered a log distribution coefficient (logD) in series [1] of 4.4.

In series [1], `C=C1/C(=C\C=C2/CCC[C@]3(C)[C@@H]([C@H](C)COCC#CC(C)(C)C)CC[C@@H]23)C[C@@H](O)C[C@@H]1O` showed a logD of 4.6.

Compound `C=C1/C(=C\C=C2/CCC[C@]3(C)[C@@H]([C@H](C)COC/C=C/C(C)(C)C)CC[C@@H]23)C[C@@H](O)C[C@@H]1O` yielded a logD in series [1] of 4.9.

As for `C=C1/C(=C\C=C2/CCC[C@]3(C)[C@@H]([C@H](C)CCCC(C)(C)O)CC[C@@H]23)C[C@@H](O)C[C@@H]1O` [CALCITRIOL], the result in series [2] and in series [3] was Active. The logD in series [1] came to 3.6.

For the compound `C=C1/C(=C\C=C2/CCC[C@]3(C)[C@@H]([C@H](C)COCC(=C)C(C)(C)C)CC[C@@H]23)C[C@@H](O)C[C@@H]1O`, the logD in series [1] was found to be 4.7. The result in series [4] and in series [5] was Active.

Compound `C=C(COC[C@@H](C)[C@H]1CC[C@H]2/C(=C/C=C3/C[C@@H](O)C[C@H](O)C3=C)CCC[C@]12C)c1ccccc1` showed a logD in series [1] of 5.1.

`C=C1/C(=C\C=C2/CCC[C@]3(C)[C@@H]([C@H](C)COCc4ccco4)CC[C@@H]23)C[C@@H](O)C[C@@H]1O`: the logD in series [1] is 3.3.

The compound `C=C(COC[C@@H](C)[C@H]1CC[C@H]2/C(=C/C=C3/C[C@@H](O)C[C@H](O)C3=C)CCC[C@]12C)C1=CCCCC1(C)C` returned a logD in series [1] of 4.9. The result in series [4] and in series [5] was Active.
